Assay results: paper PMC10683023, “Targeting Glial Cells by Organic Anion-Transporting Polypeptide 1C1 (OATP1C1)-Utilizing L-Thyroxine-Derived Prodrugs” (Journal of Medicinal Chemistry, 2023)

Columns and labels:
[1] = tested on: human U-87MG glioma cells; assay: Concentration-dependent cellular uptake into human U-87MG glioma cells; format: cell-based; details: for Km / Vmax, cellular uptake, U-87MG: 5–400 μM, 30 min, 37 °C
Protocol: U-87MG (ATCC, HTB-14, unknown origin) was purchased from Lonza (Basel, Switzerland). The cells were cultured in standard conditions (37 °C, 5% CO2) using Dulbecco’s modified Eagle’s medium (DMEM) supplemented with L-glutamine (2.0 mM), heat-inactivated fetal bovine serum (FBS) (10%), penicillin (50 U/mL), and streptomycin (50 μg/mL). U-87MG cells (passages 8–25) were seeded at a density of 1 × 10^5 cells/well onto 24-well plates and used for the uptake experiments 1 day after seeding. All of the studies were carried out as three biological replicates from the same cell passage.
After removal of the culture medium, U-87MG human glioma cells and mouse primary astrocytes were carefully washed with prewarmed Hank’s balanced salt solution (HBSS) containing 125.0 mM NaCl (or choline chloride in Na^+ free conditions), 4.8 mM KCl, 1.2 mM MgSO4, 1.2 mM KH2PO4, 1.3 mM CaCl2, 5.6 mM glucose, and 25.0 mM 4-(2-hydroxyethyl)piperazine-1-ethanesulfonic acid (HEPES) with the pH adjusted to either 7.4 or pH 8.5 with 1 M NaOH (or KOH in sodium-free conditions). In the experiments at lower pH (4.5–6.5), 25.0 mM HEPES was replaced by 2-(N-morpholino) ethanesulfonic acid (MES), and the pH was adjusted to 4.5, 5.5, and 6.5 by 1.0 M NaOH. Preincubation was done with 500 μL of prewarmed HBSS at 37 °C for 10 min before adding the substrate for the uptake experiments. The functionality of OATP1C1 in human glioma U-87MG cells was studied with a known substrate (L-thyroxine, T4) and of oatp1a4, 1a5, and 1a6 in mouse primary astrocytes with [6,7-^3H(N)]-estrone-3-sulfate (ES) by incubating the uptake solution (250 μL in HBSS) consisting of 5–400 μM of the substrate at 37 °C for 30 min. After incubation, the uptake was stopped by adding 500 μL of ice-cold HBSS, and the cells were washed two times with ice-cold HBSS (2 × 500 μL). The cells were then lysed with 500 μL of 0.1 M NaOH (60 min), the lysate was neutralized, and the protein was precipitated with acidic acetonitrile (ACN with 4.8% formic acid). The supernatants were analyzed by the high-performance liquid chromatography (HPLC) methods described below (T4) or by using a liquid scintillation counter (MicroBeta2 counter, PerkinElmer, Waltham, MA) (ES). The concentrations of T4 and ES were calculated from the spiked standard curve and normalized with the protein concentrations. The protein concentrations on each plate were determined as a mean of three samples by Bio-Rad Protein Assay, based on the Bradford dye-binding method, using bovine serum albumin (BSA) as a standard protein and measuring the absorbance (595 nm) by a multiplate reader (EnVision, PerkinElmer, Inc., Waltham, MA). The OATP-mediated uptake was confirmed by changing the pH of the uptake buffer in the absence of sodium ions, and in the case of OATP1C1 in human U-87MG cells, the uptake of T4 (100 μM) was studied in the presence of competing OATP1C1-ligands, diclofenac and flufenamic acid (100 μM), and in the case of oatp1a4/1a5/1a6 in mouse primary astrocytes, the uptake of ES (100 μM) was studied in the presence of competing OATO1A2-ligand, naringin (100 μM).
Cellular uptake of prodrugs 1–8 was studied as described for L-thyroxine above by adding compounds at a concentration of 5–400 μM in prewarmed HBSS buffer (250 μL) on the cell layer and incubating at 37 °C for 30 min (uptake was linear with all compounds up to 30 min). Subsequently, the cells were washed three times with ice-cold HBSS and lysed with 500 μL of 0.1 M NaOH (60 min). The lysate was neutralized; the proteins were precipitated with acidic ACN (containing 4.8% formic acid), and the supernatants were analyzed by the (HPLC) methods described below. The concentrations of each prodrug normalized to protein concentration were calculated from the standard curve prepared by spiking known concentrations of compounds into ACN-precipitated cell lysate. […]

oatp1a4/1a5/1a6 = assay: Competitive uptake into mouse primary astrocytes in the presence of OATP1A2 inhibitor naringin; format: cell-based; details: 100 μM prodrug, 100 μM NRG, result in words
Protocol: The competitive uptake in the presence of OATP-inhibitors or competing substrates (100 μM), diclofenac (DFC) and flufenamic acid (FFA), for OATP1C1 and naringin (NRG) for OATP1A2 was carried out as described above with HBSS buffer at pH 7.4 containing 100 μM of the studied compound. The cells were preincubated with the inhibitors for 10 min, and the incubation mixture was removed before adding the studied compound and the inhibitor to the cells. The competitive uptake (30 min) with the inhibitor was then carried out as the normal uptake described above. The concentrations of the studied compounds were analyzed by the HPLC methods described below, calculated from the spiked standard curve, and normalized with the protein concentrations.
The amount of prodrug 1–8 was determined by the HPLC system, which consisted of an Agilent 1100 binary pump (Agilent Technologies Inc., Wilmington, DE), an 1100 micro vacuum degasser, an HP 1050 Autosampler, and an HP 1050 variable wavelength detector, operated at 230–240 nm. The chromatographic separations were achieved on an Agilent Zorbax SB-C18 analytical column (4.4 mm × 150 mm, 5 μm) (Agilent Technologies Inc., Wilmington, DE) by using isocratic elution of water containing 0.1% formic acid (pH ca. 3.0) and acetonitrile containing 0.1% formic acid with ratios of 50:50, 30:70, 40:60, 50:50, 50:50, 40:60, 40:60, and 30:70 (v/v), respectively, for prodrug 1–8. […] The lower limit of quantification for prodrugs 1–8 was 0.20 μM. These HPLC methods were also accurate, precise, and selective over the range of 0.5–20 μM.

SMILES	Km [1]	Vmax, cellular uptake, U-87MG [1]	Vmax, cellular uptake, U-87MG ([1]; listed as PD6)	Cellular uptake in the presence of OATP1A2 inhibitor naringin (NRG) (oatp1a4/1a5/1a6)	Vmax, cellular uptake, U-87MG ([1]; listed as PD2)	Vmax, cellular uptake, U-87MG ([1]; listed as PD5)	Transport capacity relative to prodrug 3 ([1]; at 200 μM concentration, U-87MG cells)	Affinity relative to corresponding DIT prodrug 3 ([1]; from Km values, U-87MG cells)
COc1ccc2cc([C@H](C)C(=O)Oc3c(I)cc(Oc4c(I)cc(C[C@H](N)C(=O)O)cc4I)cc3I)ccc2c1 [Prodrug 6, (S)-2-Amino-3-(4-(3,5-diiodo-4-(((S)-2-(6-methoxynaphthalen-2-yl)propanoyl)oxy)phenoxy)-3,5-diiodophenyl)propanoic acid]	138 ± 36 µM	13.5 nmol/min/mg	13.5 ± 1.6 nmol/min/mg	increased	–	–	–	–
CC(C(=O)Oc1c(I)cc(Oc2c(I)cc(C[C@H](N)C(=O)O)cc2I)cc1I)c1cccc(C(=O)c2ccccc2)c1 (mixture of isomers) [Prodrug 2, (2S)-2-Amino-3-(4-(4-((2-(3-benzoylphenyl)propanoyl)oxy)-3,5-diiodophenoxy)-3,5-diiodophenyl)propanoic acid]	118 ± 27 µM	13 nmol/min/mg	–	greatest decrease	13.0 ± 1.3 nmol/min/mg	–	–	–
COc1ccc2cc([C@H](C)C(=O)Oc3c(I)cc(C[C@H](N)C(=O)O)cc3I)ccc2c1 [Prodrug 5, (S)-2-Amino-3-(3,5-diiodo-4-(((S)-2-(6-methoxynaphthalen-2-yl)propanoyl)oxy)phenyl)propanoic acid]	138 ± 79 µM	9.0 nmol/min/mg	–	increased	–	9.0 ± 3.7 nmol/min/mg	–	–
CC(C(=O)Oc1c(I)cc(C[C@H](N)C(=O)O)cc1I)c1ccc(-c2ccccc2)c(F)c1 (mixture of isomers) [Prodrug 7, (2S)-2-Amino-3-(4-((2-(2-fluoro-[1,1′-biphenyl]-4-yl)propanoyl)oxy)-3,5-diiodophenyl)propanoic acid]	381 ± 73 µM	19.8 ± 2.3 nmol/min/mg	–	–	–	–	–	–
CC(C(=O)Oc1c(I)cc(Oc2c(I)cc(C[C@H](N)C(=O)O)cc2I)cc1I)c1ccc(-c2ccccc2)c(F)c1 (mixture of isomers) [Prodrug 8, (2S)-2-Amino-3-(4-(4-((2-(2-fluoro-[1,1′-biphenyl]-4-yl)propanoyl)oxy)-3,5-diiodophenoxy)-3,5-diiodophenyl)propanoic acid]	221 ± 48 µM	21.5 ± 2.4 nmol/min/mg	–	–	–	–	–	–
N[C@@H](Cc1cc(I)c(Oc2cc(I)c(OC(=O)c3ccccc3O)c(I)c2)c(I)c1)C(=O)O [Prodrug 4, (S)-2-Amino-3-(4-(4-((2-hydroxybenzoyl)oxy)-3,5-diiodophenoxy)-3,5-diiodophenyl)propanoic acid]	106 ± 32 µM	9.0 ± 1.1 nmol/min/mg	–	–	–	–	ca. 3.5 times	5 times
N[C@@H](Cc1cc(I)c(OC(=O)c2ccccc2O)c(I)c1)C(=O)O [Prodrug 3, (S)-2-Amino-3-(4-((2-hydroxybenzoyl)oxy)-3,5-diiodophenyl)propanoic acid]	539 ± 97 µM	9.9 ± 1.2 nmol/min/mg	–	–	–	–	–	–
